Experimental data taken from EP0377642B1, “HERBICIDES FOR WEED CONTROL IN RICE” (E.I. DU PONT DE NEMOURS AND COMPANY, priority 1987, dated 1989).

Assays:
CI = experiment: Herbicidal efficacy in relation to application timing in Indonesia (Table 5); assay type: in vivo
Excerpt: (§1) Methyl 2-[[[[(4-methoxy-6-methyl-1,3,5-triazin-2-yl)amino]carbonyl]amino]sulfonyl]benzoate (Compound 1) and mixtures thereof with other compounds were applied as a spray (using a hand sprayer) to rice (either transplanted or direct seeded) in several rice growing areas in Southeast Asia and in the U.S. Tables 1-28 contain the results of these tests and clearly exemplify the utility of this invention. The details of each application are included in the appropriate table. [drawing 2]

PS = experiment: as above; assay type: in vivo
Excerpt: as §1

COC(=O)c1ccccc1S(=O)(=O)NC(=O)Nc1nc(C)nc(OC)n1 [Compound 1, Methyl 2-[[[[(4-methoxy-6-methyl-1,3,5-triazin-2-yl)amino]carbonyl]amino]sulfonyl]benzoate]
% CONTROL CI (CI; 3 WAT, 2 GAI/HA, evaluation 1): 0%
% CONTROL CI (CI; 3 WAT, 2 GAI/HA, evaluation 2): 0%
% CONTROL CI (CI; 3 WAT, 2 GAI/HA, evaluation 3): 0%
% CONTROL CI (CI; 3 WAT, 3 GAI/HA, evaluation 1): 20%
% CONTROL CI (CI; 3 WAT, 3 GAI/HA, evaluation 2): 0%
% CONTROL CI (CI; 3 WAT, 3 GAI/HA, evaluation 3): 0%
% CONTROL CI (CI; 3 WAT, 4 GAI/HA, evaluation 1): 20%
% CONTROL CI (CI; 3 WAT, 4 GAI/HA, evaluation 2): 0%
% CONTROL CI (CI; 3 WAT, 4 GAI/HA, evaluation 3): 0%
% CONTROL CI (CI; 3 WAT, 6 GAI/HA, evaluation 1): 20%
% CONTROL CI (CI; 3 WAT, 6 GAI/HA, evaluation 2): 0%
% CONTROL CI (CI; 3 WAT, 6 GAI/HA, evaluation 3): 0%
% CONTROL CI (CI; 3 WAT, 8 GAI/HA, evaluation 1): 20%
% CONTROL CI (CI; 3 WAT, 8 GAI/HA, evaluation 2): 0%
% CONTROL CI (CI; 3 WAT, 8 GAI/HA, evaluation 3): 0%
% CONTROL CI (CI; 4 WAT, 2 GAI/HA, evaluation 1): 0%
% CONTROL CI (CI; 4 WAT, 2 GAI/HA, evaluation 2): 0%
% CONTROL CI (CI; 4 WAT, 2 GAI/HA, evaluation 3): 0%
% CONTROL CI (CI; 4 WAT, 3 GAI/HA, evaluation 1): 0%
% CONTROL CI (CI; 4 WAT, 3 GAI/HA, evaluation 2): 0%
% CONTROL CI (CI; 4 WAT, 3 GAI/HA, evaluation 3): 0%
% CONTROL CI (CI; 4 WAT, 4 GAI/HA, evaluation 1): 20%
% CONTROL CI (CI; 4 WAT, 4 GAI/HA, evaluation 2): 20%
% CONTROL CI (CI; 4 WAT, 4 GAI/HA, evaluation 3): 0%
% CONTROL CI (CI; 4 WAT, 6 GAI/HA, evaluation 1): 20%
% CONTROL CI (CI; 4 WAT, 6 GAI/HA, evaluation 2): 20%
% CONTROL CI (CI; 4 WAT, 6 GAI/HA, evaluation 3): 0%
% CONTROL CI (CI; 4 WAT, 8 GAI/HA, evaluation 1): 20%
% CONTROL CI (CI; 4 WAT, 8 GAI/HA, evaluation 2): 20%
% CONTROL CI (CI; 4 WAT, 8 GAI/HA, evaluation 3): 0%
% CONTROL CI (CI; 5 WAT, 2 GAI/HA, evaluation 1): 0%
% CONTROL CI (CI; 5 WAT, 2 GAI/HA, evaluation 2): 0%
% CONTROL CI (CI; 5 WAT, 2 GAI/HA, evaluation 3): 0%
% CONTROL CI (CI; 5 WAT, 3 GAI/HA, evaluation 1): 50%
% CONTROL CI (CI; 5 WAT, 3 GAI/HA, evaluation 2): 20%
% CONTROL CI (CI; 5 WAT, 3 GAI/HA, evaluation 3): 0%
% CONTROL CI (CI; 5 WAT, 4 GAI/HA, evaluation 1): 60%
% CONTROL CI (CI; 5 WAT, 4 GAI/HA, evaluation 2): 30%
% CONTROL CI (CI; 5 WAT, 4 GAI/HA, evaluation 3): 0%
% CONTROL CI (CI; 5 WAT, 6 GAI/HA, evaluation 1): 60%
% CONTROL CI (CI; 5 WAT, 6 GAI/HA, evaluation 2): 40%
% CONTROL CI (CI; 5 WAT, 6 GAI/HA, evaluation 3): 0%
% CONTROL CI (CI; 5 WAT, 8 GAI/HA, evaluation 1): 60%
% CONTROL CI (CI; 5 WAT, 8 GAI/HA, evaluation 2): 60%
% CONTROL CI (CI; 5 WAT, 8 GAI/HA, evaluation 3): 30%
% CONTROL PS (PS; 3 WAT, 2 GAI/HA, evaluation 1): 0%
% CONTROL PS (PS; 3 WAT, 2 GAI/HA, evaluation 2): 0%
% CONTROL PS (PS; 3 WAT, 2 GAI/HA, evaluation 3): 0%
% CONTROL PS (PS; 3 WAT, 3 GAI/HA, evaluation 1): 0%
% CONTROL PS (PS; 3 WAT, 3 GAI/HA, evaluation 2): 0%
% CONTROL PS (PS; 3 WAT, 3 GAI/HA, evaluation 3): 0%
% CONTROL PS (PS; 3 WAT, 4 GAI/HA, evaluation 1): 0%
% CONTROL PS (PS; 3 WAT, 4 GAI/HA, evaluation 2): 0%
% CONTROL PS (PS; 3 WAT, 4 GAI/HA, evaluation 3): 0%
% CONTROL PS (PS; 3 WAT, 6 GAI/HA, evaluation 1): 0%
% CONTROL PS (PS; 3 WAT, 6 GAI/HA, evaluation 2): 0%
% CONTROL PS (PS; 3 WAT, 6 GAI/HA, evaluation 3): 0%
% CONTROL PS (PS; 3 WAT, 8 GAI/HA, evaluation 1): 0%
% CONTROL PS (PS; 3 WAT, 8 GAI/HA, evaluation 2): 0%
% CONTROL PS (PS; 3 WAT, 8 GAI/HA, evaluation 3): 0%
% CONTROL PS (PS; 4 WAT, 2 GAI/HA, evaluation 1): 0%
% CONTROL PS (PS; 4 WAT, 2 GAI/HA, evaluation 2): 0%
% CONTROL PS (PS; 4 WAT, 2 GAI/HA, evaluation 3): 0%
% CONTROL PS (PS; 4 WAT, 3 GAI/HA, evaluation 1): 0%
% CONTROL PS (PS; 4 WAT, 3 GAI/HA, evaluation 2): 0%
% CONTROL PS (PS; 4 WAT, 3 GAI/HA, evaluation 3): 0%
% CONTROL PS (PS; 4 WAT, 4 GAI/HA, evaluation 1): 0%
